Laboratory results from patent publication US20170107257A1, “CYCLIC APELIN ANALOGS” (LANTHIOPEP B.V., priority 2014, published 2017).
Numbered stars: 1 amine (or outer) side, 2 acyl side, 3 side chain; on linkers, the order of the positions; unused ones are H or OH. Bridge positions count the residues as written; N and C are the ends. Square brackets hold non-standard residues; d marks the D form. Ends that are not written are not given here. Peptide text beside a SMILES is read from it. ξ: configuration not given here. ξAbu(3ξ-yl) = CC(C(N[*:1])C(=O)[*:2])[*:3]; pGlu = O=C1CC[C@@H](C(=O)O)N1; X1 = CC=C(N[*:1])C(=O)[*:2]; ξC = NC(CS)C(=O)O

Columns and labels:
hAPJ [1] = target: T1, hAPJ (Homo sapiens, UniProt P35414); experiment: beta arrestin assay (DiscoverX); assay type: cell-based; settings: for Ratio β-arrestin/cAMP: ratio of β-arrestin EC50 to cAMP EC50; for EC50: read-out: β-arrestin EC50
T1 sequence (P35414 1-380): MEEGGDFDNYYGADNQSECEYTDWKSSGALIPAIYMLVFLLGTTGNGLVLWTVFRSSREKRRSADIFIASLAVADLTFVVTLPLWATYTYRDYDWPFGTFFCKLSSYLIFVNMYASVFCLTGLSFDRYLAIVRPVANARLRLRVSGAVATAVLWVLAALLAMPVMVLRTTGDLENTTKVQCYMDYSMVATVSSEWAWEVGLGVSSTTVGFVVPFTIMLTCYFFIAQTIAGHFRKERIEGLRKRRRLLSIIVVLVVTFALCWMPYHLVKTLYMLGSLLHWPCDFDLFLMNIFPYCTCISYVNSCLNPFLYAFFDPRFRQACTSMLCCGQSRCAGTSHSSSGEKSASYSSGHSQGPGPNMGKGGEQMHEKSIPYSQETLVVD
Procedure: (§1) (Me)lan apelin variants were tested with cAMP and beta arrestin assays from the company DiscoverX.

[2] = Stability of apelin analogs in rat plasma; assay type: in vitro ADME; settings: rat, plasma; for half-life at 0.1 mg/ml: pH 7.4
Procedure: Stability of apelin analogs in rat plasma. […] Samples were quenched by acidifying to final concentration of 5% TFA. Samples were analyzed on HPLC. Peak heights were plotted as relative to the initial peak heights.

hAPJ [3] = target: T1, hAPJ; experiment: cAMP assay (DiscoverX); assay type: cell-based
Procedure: as §1

hAPJ [4] = target: T1, hAPJ; experiment: hAPJ receptor internalization assay (APJ-GFP translocation, HEK293); assay type: cell-based; set-up: expressed in transfected cells; host or cells: HEK293, adenoviral transduction (Ad-GFP-hAPJ); settings: 500 nM max, read-out: Relative EC50 (nM), hAPJ internalisation
Procedure: HEK293 cells are seeded 24 hours prior to experiment at 50% confluence in 2×F75 flasks. The next morning, cells are trypsinized, vortexed for 60 seconds and passed through a 40 micron mesh filter. Cells are resuspended at a density of 300,000 cells/ml in OptiMEM+2% FBS, and Ad-GFP-hAPJ virus is added at an MOI of 1 PFU/cell. Cells are vortexed and dispensed into 96 well clear bottom, black dishes at a concentration of 10,000 cells/well. Cells are maintained at room temperature for 30 minutes to allow cell attachment to the dish prior to Incubation overnight at 37° C. in a 5% CO2 incubator. Next morning, apelin analogs are added in a concentration response curve (500 nM max). APJ-GFP translocation is observed and documented on Olympus FV con-focal microscope.

Molecule	Ratio β-arrestin/cAMP (hAPJ [1])	half-life at 0.1 mg/ml [2]	EC50 (hAPJ [3])	EC50 (hAPJ [1])	other results
CC(C)C[C@H](NC(=O)[C@H](CCCNC(=N)N)NC(=O)[C@@H]1CCCN1C(=O)[C@H](CCCNC(=N)N)NC(=O)[C@@H]1CCC(=O)N1)C(=O)NC1CSCC(C(=O)N2CCC[C@H]2C(=O)N[C@@H](Cc2ccccc2)C(=O)O)NC(=O)[C@@H]2CCCN2C(=O)CNC(=O)[C@H](CCCCN)NC(=O)[C@H](Cc2c[nH]cn2)NC1=O (single isomer, unassigned) [pEApeM9S II, pERPRLLanHKGPLanPF]	200	–	–	–	–
CSCC[C@@H]1NC(=O)[C@@H]2CCCN2C(=O)CNC(=O)C(NC(=O)[C@H](Cc2c[nH]cn2)NC(=O)[C@H](C)NC(=O)[C@H](CC(C)C)NC(=O)[C@H](CCCNC(=N)N)NC(=O)[C@@H]2CCCN2C(=O)[C@H](CCCNC(=N)N)NC(=O)[C@@H](N)CCC(N)=O)CSCC(C(=O)N[C@@H](Cc2ccccc2)C(=O)O)NC1=O (some centres unmarked) [ApeT8cS]	–	–	–	–	activity in Example 8 (hAPJ [3]): significant activity
CSCC[C@H](NC(=O)[C@@H]1CCCN1C(=O)CNC(=O)C1CSC(C)C(NC(=O)[C@H](CC(C)C)NC(=O)[C@H](CCCNC(=N)N)NC(=O)[C@@H]2CCCN2C(=O)[C@H](CCCNC(=N)N)NC(=O)[C@@H]2CCC(=O)N2)C(=O)N[C@@H](Cc2c[nH]cn2)C(=O)N[C@@H](CCCCN)C(=O)N1)C(=O)N1CCC[C@H]1C(=O)N[C@@H](Cc1ccccc1)C(N)=O (some centres unmarked) [amidated pEApeM6, pERPRLmeLanHKmeLanGPMPF-NH2] ([pGlu]RPRL[ξAbu(3ξ-yl)]HK[ξC]GPMPF-NH2; thioether 6-9)	0.75	–	80 nM	60 nM	–
CSCC[C@H](NC(=O)[C@@H]1CCCN1C(=O)CNC(=O)[C@H](CCCCN)NC(=O)C1CSC(C)C(NC(=O)[C@@H]2CCCN2C(=O)[C@H](CCCNC(=N)N)NC(=O)[C@@H]2CCC(=O)N2)C(=O)N[C@@H](CCCNC(=N)N)C(=O)N[C@@H](CC(C)C)C(=O)N[C@@H](C)C(=O)N1)C(=O)N1CCC[C@H]1C(=O)N[C@@H](Cc1ccccc1)C(=O)O (some centres unmarked) [pEApeI3c, pERPmeLanRLAmeLanKGPMPF] ([pGlu]RP[ξAbu(3ξ-yl)]RLA[ξC]KGPMPF-OH; thioether 4-8; C-terminus assumed)	167	2 h	17 nM	2840 nM	–
CSCC[C@H](NC(=O)[C@@H]1CCCN1C(=O)CNC(=O)[C@H](CCCCN)NC(=O)C1CSC(C)C(NC(=O)[C@H](CCCNC(=N)N)NC(=O)[C@@H]2CCCN2C(=O)[C@H](CCCNC(=N)N)NC(=O)[C@@H]2CCC(=O)N2)C(=O)N[C@@H](CC(C)C)C(=O)N[C@@H](C)C(=O)N1)C(=O)N1CCC[C@H]1C(=O)N[C@@H](Cc1ccccc1)C(=O)O (some centres unmarked) [pEApeI4a, pERPRmeLanLAmeLanKGPMPF] ([pGlu]RPR[ξAbu(3ξ-yl)]LA[ξC]KGPMPF-OH; thioether 5-8; C-terminus assumed)	87	2 h	12.8 nM	1110 nM	–
CSCC[C@H](NC(=O)[C@@H]1CCCN1C(=O)[C@@H]1CSCC(NC(=O)[C@H](CC(C)C)NC(=O)[C@H](CCCNC(=N)N)NC(=O)[C@@H]2CCCN2C(=O)[C@H](CCCNC(=N)N)NC(=O)[C@@H]2CCC(=O)N2)C(=O)N[C@@H](C)C(=O)N[C@@H](Cc2c[nH]cn2)C(=O)N[C@@H](CCCCN)C(=O)N1)C(=O)N1CCC[C@H]1C(=O)N[C@@H](Cc1ccccc1)C(=O)O (some centres unmarked) [pEApeI5cS I, pERPRLLanAHKLanPMPF]	–	3 h	–	–	–
CC=C(NC(=O)[C@H](CCSC)NC(=O)[C@@H]1CCCN1C(=O)C1CSC(C)C(NC(=O)[C@H](CC(C)C)NC(=O)[C@H](CCCNC(=N)N)NC(=O)[C@@H]2CCCN2C(=O)[C@H](CCCNC(=N)N)NC(=O)[C@@H]2CCC(=O)N2)C(=O)N[C@@H](Cc2c[nH]cn2)C(=O)N[C@@H](CCCCN)C(=O)N1)C(=O)N[C@@H](Cc1ccccc1)C(=O)O (some centres unmarked) [pEApeM5T, pERPRLmeLanHKmeLanPMDhbF] ([pGlu]RPRL[ξAbu(3ξ-yl)]HK[ξC]PM[X1]F-OH; thioether 6-9; C-terminus assumed)	0.16	24 h	190 nM	32 nM	stability in rat plasma [2]: enhanced stability
CSCC[C@H](NC(=O)[C@@H]1CCCN1C(=O)CNC(=O)[C@@H]1CSC(C)C(NC(=O)[C@H](CC(C)C)NC(=O)[C@H](CCCNC(=N)N)NC(=O)[C@@H]2CCCN2C(=O)[C@H](CCCNC(=N)N)NC(=O)[C@@H]2CCC(=O)N2)C(=O)N[C@@H](Cc2c[nH]cn2)C(=O)N[C@@H](CCCCN)C(=O)N1)C(=O)N1CCC[C@H]1C(=O)N[C@@H](Cc1ccccc1)C(=O)O (some centres unmarked) [pEApeM6, pERPRLmeLanHKmeLanGPMPF] ([pGlu]RPRL[ξAbu(3ξ-yl)]HKCGPMPF-OH; thioether 6-9)	–	8 h	–	–	–
CSCC[C@H](NC(=O)[C@@H]1CCCN1C(=O)CNC(=O)C1CSC(C)C(NC(=O)[C@H](CC(C)C)NC(=O)[C@H](CCCNC(=N)N)NC(=O)[C@@H]2CCCN2C(=O)[C@H](CCCNC(=N)N)NC(=O)[C@@H]2CCC(=O)N2)C(=O)N[C@@H](Cc2c[nH]cn2)C(=O)N[C@@H](CCCCN)C(=O)N1)C(=O)N1CCC[C@H]1C(=O)O (some centres unmarked) [pEApeM6deltaF, pERPRLmeLanHKmeLanGPMP] ([pGlu]RPRL[ξAbu(3ξ-yl)]HK[ξC]GPMP-OH; thioether 6-9; C-terminus assumed)	3	–	125 nM	385 nM	EC50 (hAPJ [4]): > 1000 nM
CSCC[C@H](NC(=O)[C@@H]1CCCN1C(=O)[C@@H]1CSC(C)C(NC(=O)[C@H](CC(C)C)NC(=O)[C@H](CCCNC(=N)N)NC(=O)[C@@H]2CCCN2C(=O)[C@H](CCCNC(=N)N)NC(=O)[C@@H]2CCC(=O)N2)C(=O)N[C@@H](Cc2c[nH]cn2)C(=O)N[C@@H](CCCCN)C(=O)NCC(=O)N1)C(=O)N1CCC[C@H]1C(=O)N[C@@H](Cc1ccccc1)C(=O)O (some centres unmarked) [pEApeM7, pERPRLmeLanHKGmeLanPMPF] ([pGlu]RPRL[ξAbu(3ξ-yl)]HKGCPMPF-OH; thioether 6-10)	–	15 h	–	–	–
CSCC[C@H](NC(=O)[C@@H]1CSCC(NC(=O)[C@H](CC(C)C)NC(=O)[C@H](CCCNC(=N)N)NC(=O)[C@@H]2CCCN2C(=O)[C@H](CCCNC(=N)N)NC(=O)[C@@H]2CCC(=O)N2)C(=O)N[C@@H](Cc2c[nH]cn2)C(=O)N[C@@H](CCCCN)C(=O)NCC(=O)N2CCC[C@H]2C(=O)N1)C(=O)N1CCC[C@H]1C(=O)N[C@@H](Cc1ccccc1)C(=O)O (some centres unmarked) [pEApeM12S, pERPRLLanHKGPLanMPF]	–	3 h	–	–	–

The next lines start with results.

Ratio β-arrestin/cAMP (hAPJ [1])	half-life at 0.1 mg/ml [2]	EC50 (hAPJ [3])	EC50 (hAPJ [1])	Molecule	other results
50	> 24 h	–	–	CSCC[C@@H]1NC(=O)[C@@H]2CCCN2C(=O)CNC(=O)[C@H](CCCCN)NC(=O)[C@H](Cc2c[nH]cn2)NC(=O)C(NC(=O)[C@H](CC(C)C)NC(=O)[C@H](CCCNC(=N)N)NC(=O)[C@@H]2CCCN2C(=O)[C@H](CCCNC(=N)N)NC(=O)[C@@H]2CCC(=O)N2)CSCC(C(=O)N2CCC[C@H]2C(=O)N[C@@H](Cc2ccccc2)C(=O)O)NC1=O (single isomer, unassigned) [pEApeM27S I, pERPRLLanHKGPMLanPF]	–
–	> 24 h	–	–	CSCC[C@@H]1NC(=O)[C@@H]2CCCN2C(=O)CNC(=O)[C@H](CCCCN)NC(=O)[C@H](Cc2c[nH]cn2)NC(=O)C(NC(=O)[C@H](CC(C)C)NC(=O)[C@H](CCCNC(=N)N)NC(=O)[C@@H]2CCCN2C(=O)[C@H](CCCNC(=N)N)NC(=O)[C@@H]2CCC(=O)N2)CSC[C@@H](C(=O)N[C@@H](Cc2ccccc2)C(=O)O)NC1=O (some centres unmarked) [pEApeM26S I, pERPRLLanHKGPMLanF]	–
122	8 h	2 nM	245 nM	CSCC[C@@H]1NC(=O)[C@@H]2CCCN2C(=O)CNC(=O)C(NC(=O)[C@H](Cc2c[nH]cn2)NC(=O)[C@H](C)NC(=O)[C@H](CC(C)C)NC(=O)[C@H](CCCNC(=N)N)NC(=O)[C@@H]2CCCN2C(=O)[C@H](CCCNC(=N)N)NC(=O)[C@@H]2CCC(=O)N2)CSCC(C(=O)N[C@@H](Cc2ccccc2)C(=O)O)NC1=O (some centres unmarked) [pEApeT8cS]	–
–	7 h	–	–	CSCC[C@H](NC(=O)[C@@H]1CCCN1C(=O)CNC(=O)[C@@H]1CSC(C)C(NC(=O)[C@H](CC(C)C)NC(=O)[C@H](CCCNC(=N)N)NC(=O)[C@@H]2CCCN2C(=O)[C@H](CCCNC(=N)N)NC(=O)[C@@H]2CCC(=O)N2)C(=O)N[C@@H](Cc2c[nH]cn2)C(=O)N[C@@H](CCCCN)C(=O)N1)C(=O)N1CCC[C@H]1C(=O)N[C@@H](C)C(=O)O (some centres unmarked) [pERPRLmeLanHKmeLanGPMPA] ([pGlu]RPRL[ξAbu(3ξ-yl)]HKCGPMPA-OH; thioether 6-9)	–
–	10 h	–	–	CSCC[C@H](NC(=O)[C@@H]1CCCN1C(=O)CNC(=O)[C@@H]1CSC(C)C(NC(=O)[C@H](CC(C)C)NC(=O)[C@H](CCCNC(=N)N)NC(=O)[C@@H]2CCCN2C(=O)[C@H](CCCNC(=N)N)NC(=O)[C@@H]2CCC(=O)N2)C(=O)N[C@@H](Cc2c[nH]cn2)C(=O)N[C@@H](CCCCN)C(=O)N1)C(=O)N[C@H](C(=O)N[C@@H](Cc1ccccc1)C(=O)O)C(C)C (some centres unmarked) [pERPRLmeLanHKmeLanGPMVF] ([pGlu]RPRL[ξAbu(3ξ-yl)]HKCGPMVF-OH; thioether 6-9)	–
20	–	0.6 nM	12 nM	QRPRLAHKGPMPF [reference compound]	–
